In ChEMBL document CHEMBL1201862, “PubChem BioAssay data set” (2004):
Blank lines part the entries; values can stand above or below the compound they belong to. Activity calls are given as the source filed them.

Tests used:
[1] = molecular target: Protein disulfide-isomerase (Homo sapiens, UniProt P07237); assay: inhibition of PDI-driven insulin aggregation – biochemical, turbidity, absorbance, cherry-picked samples, dose response (AID 602350); format: functional
[2] = molecular target: Intestinal-type alkaline phosphatase (Homo sapiens, UniProt P09923); assay: activation of human intestinal alkaline phosphatase – biochemical, dose response (AID 488873); format: functional
[3] = molecular target: Intestinal-type alkaline phosphatase (Mus musculus, UniProt P24822); assay: PubChem AID 488785; format: functional
[4] = molecular target: Dual specificity tyrosine-phosphorylation-regulated kinase 1A (Rattus norvegicus, UniProt Q63470); format: biochemical, Homo sapiens
[5] = molecular target: T1, Alkaline phosphatase, tissue-nonspecific isozyme (Homo sapiens, UniProt P05186); assay: TNAP enzyme inhibition by screening hits, dose response, selectivity assay for mouse IAP inhibitor project, biochemical, human TNAP, uHTS hits (AID 488906); format: functional
T1 sequence (P05186 whole entry): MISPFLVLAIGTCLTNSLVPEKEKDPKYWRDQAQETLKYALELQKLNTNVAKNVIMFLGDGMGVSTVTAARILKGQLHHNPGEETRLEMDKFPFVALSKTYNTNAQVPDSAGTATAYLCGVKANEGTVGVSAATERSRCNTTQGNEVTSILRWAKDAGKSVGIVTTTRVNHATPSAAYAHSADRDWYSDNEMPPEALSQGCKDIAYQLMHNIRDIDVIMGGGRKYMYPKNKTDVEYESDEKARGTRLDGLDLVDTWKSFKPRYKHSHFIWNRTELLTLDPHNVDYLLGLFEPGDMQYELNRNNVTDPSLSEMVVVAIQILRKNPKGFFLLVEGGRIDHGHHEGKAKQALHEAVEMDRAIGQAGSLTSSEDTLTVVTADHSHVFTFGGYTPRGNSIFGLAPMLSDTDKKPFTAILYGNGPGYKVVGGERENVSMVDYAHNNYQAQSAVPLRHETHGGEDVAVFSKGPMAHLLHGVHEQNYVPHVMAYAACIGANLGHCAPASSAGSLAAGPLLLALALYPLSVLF

Protein Wnt-3a = Protein Wnt-3a (Mus musculus, UniProt P27467); assay: antagonism of Wnt3a pathway luciferase reporter – Wnt-LIGHT cells, luminescence, selectivity assay for Gli-SUFU antagonist project, dose response (AID 651570); format: functional; settings: read-out: IC50_Mean;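 further: Wnt-LIGHT reporter cells stimulated with conditioned medium from Wnt3a-producing cells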
[6] = Trypanosoma cruzi growth suppression in host cells – NIH3T3 host cells, beta-gal luminescence, confirmation (AID 2044); format: functional, cell-based;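 further: intracellular parasites grown in NIH/3T3 mouse fibroblasts as host cells; luminescent beta-galactosidase reporter signal from transgenic T. cruzi replicating inside host cells; inhibitors lower the luminescence signal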
[7] = NIH3T3 cell viability loss – ATP luminescence, mouse fibroblasts, counter-screen, dose response (AID 2010); format: functional, cell-based;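 further: cells exposed to compound for about 90 hours before reading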
[8] = molecular target: Benomyl/methotrexate resistance protein (Candida albicans, UniProt P28873); assay: Candida albicans Mdr1 pump inhibition curves – singleplex, Cherry Pick1 hits, dose response (AID 588608); format: functional
Melanocortin receptor 4 = Melanocortin receptor 4 (Homo sapiens, UniProt P32245); format: functional, cell-based;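 further: Cell-based assay with luminescence read-out, confirmatory dose-response testing for agonist activity of biased ligands at MC4R; human U2OS cells with tagged receptor and beta-arrestin; potency of agonists that increase receptor coupling to beta-arrestin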
[9] = molecular target: Alkaline phosphatase, placental type (Homo sapiens, UniProt P05187); assay: human placental alkaline phosphatase inhibition – biochemical, luminescence, confirmation (AID 1512); format: functional
[10] = inhibition of ARNT PAS-B/TACC3 complex formation – biochemical, AlphaScreen, cherry-picked samples, confirmation (AID 651703); format: functional, Homo sapiens;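 further: His-tagged ARNT PAS-B domain paired with GST-TACC3 E629A dimer coactivator fragment; potency of inhibitors that break up the complex and lower AlphaScreen signal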
Caspase-3 = molecular target: T2, Caspase-3 (Homo sapiens, UniProt P42574); assay: SAR Analysis of small molecule inhibitors of Sentrin-specific proteases (SENPs) using a Caspase-3 Selectivity assay. [Related pubchem assays (depositor defined):AID2540, AID2599, AID434973, AID489001]; format: functional
T2 sequence (P42574 whole entry): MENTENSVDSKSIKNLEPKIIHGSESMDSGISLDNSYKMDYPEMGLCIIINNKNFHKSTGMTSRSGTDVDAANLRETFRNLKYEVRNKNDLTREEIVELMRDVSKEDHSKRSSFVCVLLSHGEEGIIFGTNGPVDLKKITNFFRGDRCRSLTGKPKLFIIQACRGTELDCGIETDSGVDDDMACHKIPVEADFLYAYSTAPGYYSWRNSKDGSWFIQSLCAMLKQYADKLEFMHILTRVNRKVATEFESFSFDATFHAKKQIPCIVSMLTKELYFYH

[11] = molecular target: T3, Sentrin-specific protease 8 (Homo sapiens, UniProt Q96LD8); assay: inhibition of human SENP8 cleavage activity – biochemical, luminescence, SAR follow-up (AID 504501); format: functional
T3 sequence (Q96LD8 whole entry): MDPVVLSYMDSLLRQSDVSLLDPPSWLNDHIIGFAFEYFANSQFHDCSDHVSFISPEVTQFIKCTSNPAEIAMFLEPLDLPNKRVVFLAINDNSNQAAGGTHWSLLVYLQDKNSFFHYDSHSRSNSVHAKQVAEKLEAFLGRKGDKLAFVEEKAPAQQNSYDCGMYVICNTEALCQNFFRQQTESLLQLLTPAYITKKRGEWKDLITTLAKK

[12] = molecular target: T4, Sentrin-specific protease 6 (Homo sapiens, UniProt Q9GZR1); assay: SAR Analysis of small molecule inhibitors of Sentrin-specific protease 6 (SENP6) using a Luminescent assay. [Related pubchem assays (depositor defined):AID2582, AID2599]; format: functional
T4 sequence (Q9GZR1 whole entry): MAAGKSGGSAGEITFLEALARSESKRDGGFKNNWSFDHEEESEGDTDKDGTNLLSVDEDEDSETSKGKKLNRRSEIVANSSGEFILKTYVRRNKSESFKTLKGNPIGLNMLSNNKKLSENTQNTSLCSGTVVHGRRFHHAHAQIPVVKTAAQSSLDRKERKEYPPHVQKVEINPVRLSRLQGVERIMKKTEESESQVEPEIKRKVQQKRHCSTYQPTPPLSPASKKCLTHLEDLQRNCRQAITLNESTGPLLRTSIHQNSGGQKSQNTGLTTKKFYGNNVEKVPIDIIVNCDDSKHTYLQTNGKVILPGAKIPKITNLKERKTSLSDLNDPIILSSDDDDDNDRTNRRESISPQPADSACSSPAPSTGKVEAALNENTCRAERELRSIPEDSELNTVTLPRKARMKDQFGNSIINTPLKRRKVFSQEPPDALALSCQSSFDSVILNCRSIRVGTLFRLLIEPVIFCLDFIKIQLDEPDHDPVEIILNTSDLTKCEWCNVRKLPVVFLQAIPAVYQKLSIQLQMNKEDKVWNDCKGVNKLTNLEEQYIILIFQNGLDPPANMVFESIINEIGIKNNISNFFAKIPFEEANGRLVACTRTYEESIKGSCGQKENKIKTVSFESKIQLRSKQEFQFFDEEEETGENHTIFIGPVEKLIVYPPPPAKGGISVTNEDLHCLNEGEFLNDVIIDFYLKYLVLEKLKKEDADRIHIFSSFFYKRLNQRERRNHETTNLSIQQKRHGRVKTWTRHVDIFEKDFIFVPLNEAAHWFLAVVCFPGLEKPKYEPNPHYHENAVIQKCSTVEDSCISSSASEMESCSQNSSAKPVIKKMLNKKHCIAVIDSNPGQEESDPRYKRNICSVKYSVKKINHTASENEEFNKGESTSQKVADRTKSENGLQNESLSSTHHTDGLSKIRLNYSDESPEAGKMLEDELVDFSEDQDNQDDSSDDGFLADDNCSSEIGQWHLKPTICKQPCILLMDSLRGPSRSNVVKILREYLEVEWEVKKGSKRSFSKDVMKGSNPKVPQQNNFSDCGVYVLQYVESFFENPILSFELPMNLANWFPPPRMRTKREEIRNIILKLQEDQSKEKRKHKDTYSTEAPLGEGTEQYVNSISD

[13] = molecular target: T5, Sentrin-specific protease 7 (Homo sapiens, UniProt Q9BQF6); assay: inhibition of human SENP7 cleavage activity – biochemical, luminescence, SAR follow-up (AID 504497); format: functional
T5 sequence (Q9BQF6 whole entry): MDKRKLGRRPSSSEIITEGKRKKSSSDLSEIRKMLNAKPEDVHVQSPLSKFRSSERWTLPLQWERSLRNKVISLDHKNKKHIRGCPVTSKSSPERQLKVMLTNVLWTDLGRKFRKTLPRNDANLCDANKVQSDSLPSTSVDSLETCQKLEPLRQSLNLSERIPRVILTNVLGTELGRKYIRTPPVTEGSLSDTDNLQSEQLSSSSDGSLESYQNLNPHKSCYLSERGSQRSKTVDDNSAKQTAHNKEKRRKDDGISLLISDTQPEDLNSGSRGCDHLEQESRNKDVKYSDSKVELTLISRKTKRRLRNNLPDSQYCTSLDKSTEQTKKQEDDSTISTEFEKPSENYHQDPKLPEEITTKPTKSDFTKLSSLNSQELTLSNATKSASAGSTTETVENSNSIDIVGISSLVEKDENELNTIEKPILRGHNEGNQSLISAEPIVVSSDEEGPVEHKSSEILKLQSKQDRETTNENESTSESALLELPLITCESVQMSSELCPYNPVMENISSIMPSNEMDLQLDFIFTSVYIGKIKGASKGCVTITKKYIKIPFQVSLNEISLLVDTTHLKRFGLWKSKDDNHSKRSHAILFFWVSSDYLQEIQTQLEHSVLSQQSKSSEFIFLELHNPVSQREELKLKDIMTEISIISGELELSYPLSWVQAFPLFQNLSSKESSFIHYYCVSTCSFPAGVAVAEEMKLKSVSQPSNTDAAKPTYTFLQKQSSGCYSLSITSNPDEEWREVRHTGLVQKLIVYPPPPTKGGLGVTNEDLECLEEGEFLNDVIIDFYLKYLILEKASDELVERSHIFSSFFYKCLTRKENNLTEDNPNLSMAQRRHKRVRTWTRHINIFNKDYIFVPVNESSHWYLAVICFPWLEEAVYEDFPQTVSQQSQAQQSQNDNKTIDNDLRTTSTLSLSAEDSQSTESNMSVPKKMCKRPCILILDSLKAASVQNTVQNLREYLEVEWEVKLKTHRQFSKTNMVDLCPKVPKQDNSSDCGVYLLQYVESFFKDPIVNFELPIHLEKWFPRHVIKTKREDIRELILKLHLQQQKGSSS

[14] = molecular target: Neuropeptides B/W receptor type 1 (Homo sapiens, UniProt P48145); assay: human NPBW1 receptor blockade, IC50 – cell-based, fluorescence, dose response, set 6, late-stage follow-up (AID 588583); format: functional
[15] = molecular target: Melanin-concentrating hormone receptor 1 (Homo sapiens, UniProt Q99705); assay: Late-stage fluorescence-based counterscreen for antagonists of the G-protein coupled receptor 7 (GPR7): cell-based dose response assay to identify antagonists of the melanin-concentrating hormone receptor 1 (MCHR1) Set 6.; format: functional
[16] = molecular target: Hepatocyte nuclear factor 4-alpha (Homo sapiens, UniProt P41235); format: functional, cell-based;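 further: biochemical luminescence-based dose-response counterscreen measuring inhibition of HNF4 dimerization, run alongside a screen for blockers of ABHD5–perilipin-5 interaction; split luciferase complementation of HNF4 fusion proteins in cell lysate measuring dimerization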
[17] = molecular target: Mitochondrial peptide methionine sulfoxide reductase (Bos taurus, UniProt P54149); format: functional;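 further: absorbance read-out, biochemical high-throughput dose-response screen for MsrA inhibitors, confirmatory; recombinant bovine MsrA coupled to E. coli TrxB with NADPH and selenocystamine; potency is for inhibitors of MsrA activity on DMSO substrate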
[18] = molecular target: T6, Heat shock factor protein 1 (Mus musculus, UniProt P38532); assay: decrease of HSF1-responsive luciferase luminescence – cell-based, NIH3T3, dose retest, confirmation (AID 2382); format: functional;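 further: NIH3T3 fibroblasts with HSF1-driven luciferase reporter stressed by proteasome inhibitor MG132; luminescence from HSF1-driven luciferase expression after 8 hours of MG132 stress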
T6 sequence (P38532 whole entry): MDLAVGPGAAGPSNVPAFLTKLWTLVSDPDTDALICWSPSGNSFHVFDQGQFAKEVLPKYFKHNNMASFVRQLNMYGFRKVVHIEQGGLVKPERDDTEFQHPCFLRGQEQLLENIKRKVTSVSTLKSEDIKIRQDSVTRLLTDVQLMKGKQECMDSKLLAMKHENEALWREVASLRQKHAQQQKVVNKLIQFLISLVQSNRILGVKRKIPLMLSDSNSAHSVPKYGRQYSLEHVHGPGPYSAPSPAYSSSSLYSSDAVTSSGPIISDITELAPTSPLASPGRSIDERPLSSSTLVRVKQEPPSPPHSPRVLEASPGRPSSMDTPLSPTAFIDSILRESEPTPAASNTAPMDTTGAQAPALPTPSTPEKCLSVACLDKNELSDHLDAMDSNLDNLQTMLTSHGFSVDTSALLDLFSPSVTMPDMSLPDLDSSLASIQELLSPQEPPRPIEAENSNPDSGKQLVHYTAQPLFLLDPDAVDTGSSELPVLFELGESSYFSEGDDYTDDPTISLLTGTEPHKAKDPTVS

Sequence of Protein disulfide-isomerase (P07237 whole entry): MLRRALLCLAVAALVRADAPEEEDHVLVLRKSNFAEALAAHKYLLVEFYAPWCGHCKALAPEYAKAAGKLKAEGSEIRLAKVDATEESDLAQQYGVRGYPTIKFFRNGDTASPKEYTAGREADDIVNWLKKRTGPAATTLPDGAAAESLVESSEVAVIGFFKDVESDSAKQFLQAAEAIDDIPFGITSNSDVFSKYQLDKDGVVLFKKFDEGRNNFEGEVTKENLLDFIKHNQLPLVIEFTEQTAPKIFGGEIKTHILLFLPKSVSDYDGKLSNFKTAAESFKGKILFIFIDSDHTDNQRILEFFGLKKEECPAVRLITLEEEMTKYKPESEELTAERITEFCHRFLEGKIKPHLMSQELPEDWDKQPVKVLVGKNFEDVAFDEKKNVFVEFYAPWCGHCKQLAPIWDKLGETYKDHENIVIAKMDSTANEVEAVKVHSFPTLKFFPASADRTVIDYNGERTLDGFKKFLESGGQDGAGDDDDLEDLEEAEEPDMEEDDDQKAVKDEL
Sequence of Neuropeptides B/W receptor type 1 (P48145 whole entry): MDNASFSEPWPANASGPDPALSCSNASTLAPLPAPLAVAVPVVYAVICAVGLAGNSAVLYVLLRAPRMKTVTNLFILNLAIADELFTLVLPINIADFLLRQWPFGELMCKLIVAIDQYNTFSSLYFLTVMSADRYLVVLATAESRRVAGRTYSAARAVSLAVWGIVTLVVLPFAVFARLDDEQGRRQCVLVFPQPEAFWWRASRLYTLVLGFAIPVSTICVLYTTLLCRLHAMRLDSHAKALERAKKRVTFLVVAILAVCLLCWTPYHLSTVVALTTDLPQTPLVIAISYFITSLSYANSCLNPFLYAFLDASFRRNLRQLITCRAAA
Sequence of Melanin-concentrating hormone receptor 1 (Q99705 whole entry, the tested form may be a part): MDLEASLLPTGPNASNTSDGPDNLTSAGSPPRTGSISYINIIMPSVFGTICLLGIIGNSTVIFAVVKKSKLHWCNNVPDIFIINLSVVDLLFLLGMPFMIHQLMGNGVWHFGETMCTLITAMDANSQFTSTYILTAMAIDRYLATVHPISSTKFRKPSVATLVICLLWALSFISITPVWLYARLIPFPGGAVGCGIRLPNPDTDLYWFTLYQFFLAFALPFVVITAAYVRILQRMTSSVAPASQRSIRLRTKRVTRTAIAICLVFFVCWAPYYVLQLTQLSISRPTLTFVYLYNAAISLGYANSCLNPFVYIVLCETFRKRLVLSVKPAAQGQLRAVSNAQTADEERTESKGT
Sequence of Alkaline phosphatase, placental type (P05187 whole entry, the tested form may be a part): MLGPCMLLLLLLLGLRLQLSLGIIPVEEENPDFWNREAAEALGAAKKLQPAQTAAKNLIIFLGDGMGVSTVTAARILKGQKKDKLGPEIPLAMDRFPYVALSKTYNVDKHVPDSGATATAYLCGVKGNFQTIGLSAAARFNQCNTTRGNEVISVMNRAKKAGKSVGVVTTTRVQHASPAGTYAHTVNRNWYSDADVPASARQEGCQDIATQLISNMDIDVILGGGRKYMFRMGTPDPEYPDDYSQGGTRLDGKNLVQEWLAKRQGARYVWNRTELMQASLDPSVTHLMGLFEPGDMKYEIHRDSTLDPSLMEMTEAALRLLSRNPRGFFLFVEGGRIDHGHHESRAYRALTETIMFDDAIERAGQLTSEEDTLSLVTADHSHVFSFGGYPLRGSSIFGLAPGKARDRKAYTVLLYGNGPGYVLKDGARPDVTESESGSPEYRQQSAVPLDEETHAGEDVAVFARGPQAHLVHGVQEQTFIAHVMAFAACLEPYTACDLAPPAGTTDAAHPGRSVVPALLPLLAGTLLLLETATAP
Sequence of Protein Wnt-3a (P27467 whole entry): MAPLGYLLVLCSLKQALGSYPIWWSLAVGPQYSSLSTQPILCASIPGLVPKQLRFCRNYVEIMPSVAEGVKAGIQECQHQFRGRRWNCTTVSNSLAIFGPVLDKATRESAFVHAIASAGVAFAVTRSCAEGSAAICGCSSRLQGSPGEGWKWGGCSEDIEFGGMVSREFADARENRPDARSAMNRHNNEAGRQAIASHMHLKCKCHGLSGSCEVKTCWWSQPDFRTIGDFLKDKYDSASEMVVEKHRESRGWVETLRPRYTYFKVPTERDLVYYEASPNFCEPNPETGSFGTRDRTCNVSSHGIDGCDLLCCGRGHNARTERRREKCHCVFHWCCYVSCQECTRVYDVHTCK
Sequence of Mitochondrial peptide methionine sulfoxide reductase (P54149 whole entry): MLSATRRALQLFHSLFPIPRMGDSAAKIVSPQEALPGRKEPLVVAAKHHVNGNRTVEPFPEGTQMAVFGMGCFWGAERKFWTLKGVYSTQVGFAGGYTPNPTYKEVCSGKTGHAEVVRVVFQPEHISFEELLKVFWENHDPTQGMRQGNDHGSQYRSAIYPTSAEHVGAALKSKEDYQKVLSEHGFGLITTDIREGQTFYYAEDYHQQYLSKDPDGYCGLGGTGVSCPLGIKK
Sequence of Hepatocyte nuclear factor 4-alpha (P41235 whole entry, the tested form may be a part): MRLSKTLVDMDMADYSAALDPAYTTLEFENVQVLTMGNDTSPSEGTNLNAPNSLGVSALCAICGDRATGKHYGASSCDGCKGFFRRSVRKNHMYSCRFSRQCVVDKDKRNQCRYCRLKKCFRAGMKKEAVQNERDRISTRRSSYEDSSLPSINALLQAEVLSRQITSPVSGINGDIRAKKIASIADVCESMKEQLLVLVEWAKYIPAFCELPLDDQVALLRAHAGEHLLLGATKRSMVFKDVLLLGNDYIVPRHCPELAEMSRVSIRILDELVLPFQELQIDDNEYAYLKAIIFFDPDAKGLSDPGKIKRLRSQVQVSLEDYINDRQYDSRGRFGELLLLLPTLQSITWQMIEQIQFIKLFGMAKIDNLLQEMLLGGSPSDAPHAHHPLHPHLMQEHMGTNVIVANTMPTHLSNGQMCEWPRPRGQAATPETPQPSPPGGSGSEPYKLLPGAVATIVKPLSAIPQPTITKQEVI
Sequence of Intestinal-type alkaline phosphatase (Homo sapiens, UniProt P09923) (P09923 whole entry): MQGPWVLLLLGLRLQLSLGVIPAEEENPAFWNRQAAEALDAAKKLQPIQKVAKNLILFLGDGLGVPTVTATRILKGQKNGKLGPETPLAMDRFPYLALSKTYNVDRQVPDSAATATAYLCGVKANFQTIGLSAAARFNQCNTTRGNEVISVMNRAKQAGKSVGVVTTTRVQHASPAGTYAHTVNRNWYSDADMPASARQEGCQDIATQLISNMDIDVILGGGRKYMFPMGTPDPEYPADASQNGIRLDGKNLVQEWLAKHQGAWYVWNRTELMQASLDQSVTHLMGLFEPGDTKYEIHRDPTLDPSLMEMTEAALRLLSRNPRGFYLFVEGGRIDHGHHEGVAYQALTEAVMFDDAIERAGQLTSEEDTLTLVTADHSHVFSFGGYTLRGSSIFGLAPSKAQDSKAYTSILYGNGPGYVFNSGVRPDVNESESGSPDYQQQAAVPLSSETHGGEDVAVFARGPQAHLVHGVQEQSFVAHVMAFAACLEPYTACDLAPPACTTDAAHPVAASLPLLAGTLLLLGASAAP
Sequence of Benomyl/methotrexate resistance protein (P28873 whole entry): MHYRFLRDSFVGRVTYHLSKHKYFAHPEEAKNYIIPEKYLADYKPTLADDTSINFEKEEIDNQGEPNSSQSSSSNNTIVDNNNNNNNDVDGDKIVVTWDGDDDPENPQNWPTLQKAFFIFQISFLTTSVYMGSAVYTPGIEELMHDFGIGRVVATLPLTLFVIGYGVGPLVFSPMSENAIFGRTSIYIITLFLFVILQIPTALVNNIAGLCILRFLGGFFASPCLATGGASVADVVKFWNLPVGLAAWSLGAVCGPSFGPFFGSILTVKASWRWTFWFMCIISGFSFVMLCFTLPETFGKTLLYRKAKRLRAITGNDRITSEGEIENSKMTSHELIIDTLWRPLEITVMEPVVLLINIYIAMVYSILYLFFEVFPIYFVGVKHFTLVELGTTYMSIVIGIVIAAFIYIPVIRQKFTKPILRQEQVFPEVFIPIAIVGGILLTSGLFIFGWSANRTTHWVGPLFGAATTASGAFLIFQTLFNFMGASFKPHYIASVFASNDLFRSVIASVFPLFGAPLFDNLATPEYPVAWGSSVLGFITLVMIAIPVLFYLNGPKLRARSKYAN
Sequence of Intestinal-type alkaline phosphatase (Mus musculus, UniProt P24822) (P24822 whole entry): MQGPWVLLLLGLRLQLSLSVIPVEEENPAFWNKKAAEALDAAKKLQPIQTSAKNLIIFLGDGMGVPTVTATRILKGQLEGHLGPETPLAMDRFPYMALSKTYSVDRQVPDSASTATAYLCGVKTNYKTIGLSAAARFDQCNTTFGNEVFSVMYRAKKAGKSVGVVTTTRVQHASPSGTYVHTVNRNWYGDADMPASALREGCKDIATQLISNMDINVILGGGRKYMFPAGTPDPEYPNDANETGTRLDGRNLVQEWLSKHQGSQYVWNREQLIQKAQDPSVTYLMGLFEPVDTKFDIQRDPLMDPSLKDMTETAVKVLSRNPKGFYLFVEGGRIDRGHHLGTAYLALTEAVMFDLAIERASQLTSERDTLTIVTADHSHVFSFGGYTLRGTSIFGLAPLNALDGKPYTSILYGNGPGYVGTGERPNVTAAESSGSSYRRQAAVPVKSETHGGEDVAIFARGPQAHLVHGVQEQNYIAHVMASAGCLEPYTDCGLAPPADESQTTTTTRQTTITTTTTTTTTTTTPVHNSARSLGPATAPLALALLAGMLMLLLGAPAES
Sequence of Melanocortin receptor 4 (P32245 whole entry): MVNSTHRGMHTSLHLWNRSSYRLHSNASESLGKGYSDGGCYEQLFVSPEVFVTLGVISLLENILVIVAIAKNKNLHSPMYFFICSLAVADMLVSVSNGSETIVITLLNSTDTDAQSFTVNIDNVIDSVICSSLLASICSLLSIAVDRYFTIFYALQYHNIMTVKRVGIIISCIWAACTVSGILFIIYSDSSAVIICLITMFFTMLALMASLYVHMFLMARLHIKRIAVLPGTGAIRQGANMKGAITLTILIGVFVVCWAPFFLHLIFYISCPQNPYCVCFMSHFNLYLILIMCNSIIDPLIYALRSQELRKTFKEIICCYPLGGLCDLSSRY

Structure (SMILES): C[C@@H]1O[C@@H](O[C@H]2[C@H](O)[C@@H](O)[C@H](Oc3c(-c4ccc(O)c(O)c4)oc4cc(O)cc(O)c4c3=O)O[C@@H]2CO)[C@H](O)[C@H](O)[C@H]1O
AC50 [1]: 4.28 µM (active) | EC50 [2]: 22 µM (active) | IC50 [3]: 5.66 µM (active) | AC50 [4]: 11.4 µM (active) | IC50 [5]: 10.8 µM (active)

Structure (SMILES): c1ccc(-c2cn3c([n+]2-c2ccccc2)SCC3)cc1
IC50 (Protein Wnt-3a): 37.6 µM (inactive) | EC50 [6]: 1.92 µM (active) | EC50 [7]: > 60 µM (not active)

Structure (SMILES): COc1ccccc1-c1nc(C(N)=O)c2[nH]c(=O)n(-c3cccc(C)c3)c2n1
EC50 [8]: 17.2 µM (active)

Structure (SMILES): CCOC(=O)c1ccc(-c2ccc(/C=C(\C#N)C(=O)NCc3cccs3)o2)cc1
EC50 (Melanocortin receptor 4): > 89.2 µM (inactive)

Structure (SMILES): CCOC(=O)c1c(-c2ccc(-c3ccccc3)cc2)csc1NC(=O)c1ccc(C)cc1
IC50 (Caspase-3): > 99 µM (inactive) | IC50 [11]: > 99 µM (inactive) | IC50 [12]: > 99 µM (inactive) | IC50 [13]: > 99 µM (inactive)

Structure (SMILES): O=C(Nc1ccc2c(c1)OCCO2)C(c1ccccc1F)n1c(=O)c(-c2ccco2)nc2ccccc21 (stereo not drawn)
IC50 [16]: 16.2 µM (inactive)

Structure (SMILES): CCCCc1[nH]nc2c1/C(=N/OCC)CC(C)(C)C2
IC50 [17]: 155 µM (inactive) | EC50 [18]: > 195 µM (not active)

Structure (SMILES): C[C@@H]1O[C@@H](Oc2c(-c3ccc(O)c(O)c3)oc3cc(O)cc(O)c3c2=O)[C@H](O)[C@H](O)[C@H]1O [QUERCITRIN]
AC50 [1]: 2.48 µM (active)

Second part, led by results:

IC50 [9]: > 100 µM (inactive)
Structure (SMILES): COc1ccc(-c2cc(NCc3ccccn3)n3ncnc3n2)cc1
AC50 [10]: 91.5 µM (active)

IC50 (Caspase-3): 0.97 µM (active) | IC50 [12]: 3.5 µM (active) | IC50 [13]: 2 µM (active)
Structure (SMILES): Oc1ccccc1-c1noc(-c2ccccc2O)n1
IC50 [11]: 3.6 µM (active)

IC50 [14]: > 20 µM (inactive) | IC50 [15]: > 20 µM (inactive)
Structure (SMILES): N#CC(C#N)c1cnn(Cc2cccc3ccccc23)c(=O)c1Cl

IC50 [14]: 2.17 µM (active) | IC50 [15]: 2.17 µM (active)
Structure (SMILES): CCC(C#N)c1c(Cl)cnn(Cc2cccc3ccccc23)c1=O (stereo not drawn)
